27 compounds from ChEMBL document CHEMBL3044639, “Synthesis and biologic activities of some novel heterocyclic chalcone derivatives” (Med Chem Res, 2013) can be followed below.

The source made the active and inactive calls. The calls are words filed in the database; no cut-off is given here.

Test [1] has as its system Radical scavenging activity. Kind of test: Antioxidant activity assessed as DPPH radical scavenging activity after 20 min by microplate ELISA reader analysis. In kind it is functional. (DPPH is a stable violet radical that fades when it is reduced.)
The test system of test [2] is Staphylococcus aureus. The experiment in a line: Antibacterial activity against Staphylococcus aureus 1199B overexpressing NorA assessed as reduction of ciprofloxacin MIC at MEC after 18 hr by broth checkerboard method relative to control. The format is functional.
The test system of another test is MOLT-4. Kind of test: Cytotoxicity against Homo sapiens (human) MOLT4 cells assessed as growth inhibition after 48 hr by MTT assay. In kind it is functional, cell-based. Conditions: MOLT-4, 48 h.
A further test deals with HeLa. Kind of test: Cytotoxicity against Homo sapiens (human) HeLa cells assessed as growth inhibition after 48 hr by MTT assay. The format is functional, cell-based. Background: Tetrazolium dyes change colour on reduction, which living cells bring about.
For test [3], the system named is Staphylococcus aureus. Kind of test: Antibacterial activity against Staphylococcus aureus 1199B overexpressing NorA assessed as growth inhibition after 18 hr by broth checkerboard method. The conditions noted are these: read-out: MEC. The format is functional.
The test system of another test is PC-3. Kind of test: Cytotoxicity against Homo sapiens (human) PC3 cells assessed as growth inhibition after 48 hr by MTT assay. The format is functional, cell-based. The conditions noted are these: PC-3, 48 h.
Another test deals with Rattus norvegicus. Kind of test: Anti-inflammatory activity in Wistar Rattus norvegicus (rat) assessed as inhibition of carrageenan-induced paw edema at 100 mg/kg, po administered 45 min prior to carrageenan-challenge measured 45 min to 4 hr post carrageenan-challenge relative to control. The format is functional.
For another test, the system named is HL-60. Kind of test: Cytotoxicity against Homo sapiens (human) HL60 cells assessed as growth inhibition after 48 hr by MTT assay. Conditions: HL-60, 48 h. The format is functional, cell-based.

On to `O=C(/C=C/c1cc([N+](=O)[O-])ccc1Cl)c1ccco1`, for which the result in test [1] was inactive. Besides, the “fold change (FC)” value with Staphylococcus aureus [2] came out at 0. Also, the IC50 is 72 µM in the test on MOLT-4, greater than 100 µM with HeLa, 62 µM in the test on PC-3 and 58 µM in the test with HL-60. The minimal effective concentration in the test with Staphylococcus aureus [3] was greater than 50 µg/mL. The inhibition entry in the test on Rattus norvegicus is “inactive”.

With `O=C(/C=C/c1ccc([N+](=O)[O-])cc1)c1ccc[nH]1`, the outcome in test [1] was inactive. Besides, the “fold change (FC)” value in the test on Staphylococcus aureus [2] is reported as 0. In addition, the IC50 with MOLT-4 came to 15 µM; in the test on HeLa, 26 µM; with PC-3, 13 µM; in the test with HL-60, 14 µM. Besides, the minimal effective concentration in the test on Staphylococcus aureus [3] was greater than 50 µg/mL. Further, in the test with Rattus norvegicus, the inhibition entry was “inactive”.

`O=C(/C=C/c1ccc(Cl)cc1)c1ccc[nH]1`: in test [1], the result was inactive. In addition, in the test with Staphylococcus aureus [2], the “fold change (FC)” value was 0. Besides, the IC50 in the test with MOLT-4 turned out to be 22 µM; in the test with HeLa, 25 µM; with PC-3 it was 18 µM; in the test with HL-60, 13 µM. Moreover, the minimal effective concentration with Staphylococcus aureus [3] is greater than 50 µg/mL. For the same compound, in the test with Rattus norvegicus, the inhibition result was “inactive”.

For the compound `COc1ccc(/C=C/C(=O)c2ccco2)cc1`, the result in test [1] was inactive. Also, the “fold change (FC)” value with Staphylococcus aureus [2] is recorded as 0. Moreover, the minimal effective concentration with Staphylococcus aureus [3] is greater than 50 µg/mL. The inhibition result in the test with Rattus norvegicus is “inactive”.

Take `O=C(/C=C/c1ccccc1Br)c1ccc[nH]1`: the result in test [1] was inactive. Also, the “fold change (FC)” value in the test with Staphylococcus aureus [2] came out at 4. Moreover, the IC50 in the test on MOLT-4 was determined as 38 µM; in the test on HeLa, 44 µM; with PC-3, 44 µM; in the test with HL-60 it was 42 µM. Moreover, the minimal effective concentration in the test on Staphylococcus aureus [3] is 25 µg/mL. Moreover, the inhibition result in the test on Rattus norvegicus is “inactive”.

With `COc1ccc(CCN(C)CCCC(C#N)(c2ccc(OC)c(OC)c2)C(C)C)cc1OC` (centres undefined) [VERAPAMIL], the “fold change (FC)” value with Staphylococcus aureus [2] was 2. Besides, the minimal effective concentration with Staphylococcus aureus [3] came out at 50 µg/mL.

On to `O=C(/C=C/c1ccccc1Cl)c1ccc[nH]1`, for which the result in test [1] was inactive. The “fold change (FC)” value with Staphylococcus aureus [2] came to 4. In addition, the minimal effective concentration with Staphylococcus aureus [3] was found to be 25 µg/mL. Moreover, in the test with Rattus norvegicus, the inhibition result is “inactive”.

On to `COC(=O)[C@H]1[C@H]2C[C@@H]3c4[nH]c5cc(OC)ccc5c4CCN3C[C@H]2C[C@@H](OC(=O)c2cc(OC)c(OC)c(OC)c2)[C@@H]1OC` [RESERPINE], for which the “fold change (FC)” value in the test with Staphylococcus aureus [2] stood at 0. The minimal effective concentration in the test with Staphylococcus aureus [3] came out at 25 µg/mL.

For `COc1cccc(/C=C/C(=O)c2ccco2)c1OC`, in test [1], the result was inactive. The “fold change (FC)” value with Staphylococcus aureus [2] is given as 4. The minimal effective concentration in the test with Staphylococcus aureus [3] turned out to be 25 µg/mL. Also, the inhibition result in the test with Rattus norvegicus is “inactive”.

In the case of `O=C(/C=C/c1cc([N+](=O)[O-])ccc1Cl)c1ccc[nH]1`, the result in test [1] was inactive. In addition, in the test with Staphylococcus aureus [2], the “fold change (FC)” value is given as 0. For the same compound, the IC50 with MOLT-4 worked out at 42 µM; with HeLa, 68 µM; in the test with PC-3, 55 µM; with HL-60, 38 µM. The minimal effective concentration in the test on Staphylococcus aureus [3] was greater than 50 µg/mL. Further, the inhibition result in the test on Rattus norvegicus was “inactive”.

As for `COc1cccc(OC)c1/C=C/C(=O)c1ccc[nH]1`, the result in test [1] was inactive. In the test with Staphylococcus aureus [2], the “fold change (FC)” value came out at 0. Also, in the test on Staphylococcus aureus [3], the minimal effective concentration is greater than 50 µg/mL. Besides, the inhibition entry with Rattus norvegicus is “inactive”.

Take `COc1cc(/C=C/C(=O)c2ccco2)cc(OC)c1OC`: the outcome in test [1] was inactive. In addition, the “fold change (FC)” value in the test on Staphylococcus aureus [2] was 0. Besides, the minimal effective concentration in the test on Staphylococcus aureus [3] was greater than 50 µg/mL. Also, in the test with Rattus norvegicus, the inhibition entry is “inactive”.

As for `O=C(/C=C/c1ccc2c(c1)OCO2)c1ccco1`, the outcome in test [1] was inactive. Also, in the test on Staphylococcus aureus [2], the “fold change (FC)” value is 0. Further, in the test with Staphylococcus aureus [3], the minimal effective concentration is greater than 50 µg/mL. The inhibition entry in the test on Rattus norvegicus was “inactive”.

For the compound `CN(C)c1ccc(/C=C/C(=O)c2ccc[nH]2)cc1`, the result in test [1] was inactive. The “fold change (FC)” value with Staphylococcus aureus [2] was 0. The minimal effective concentration in the test with Staphylococcus aureus [3] is greater than 50 µg/mL. The inhibition result in the test with Rattus norvegicus is “inactive”.

Take `O=C(/C=C/c1ccc(F)cc1)c1ccco1`: in test [1], the outcome was inactive. In addition, the “fold change (FC)” value in the test with Staphylococcus aureus [2] is reported as 0. For the same compound, the minimal effective concentration with Staphylococcus aureus [3] was greater than 50 µg/mL. In the test on Rattus norvegicus, the inhibition result was “inactive”.

On to `O=C(/C=C/c1ccc2c(c1)OCO2)c1ccc[nH]1`, for which the result in test [1] was inactive. Besides, the “fold change (FC)” value with Staphylococcus aureus [2] is 0. The minimal effective concentration with Staphylococcus aureus [3] was greater than 50 µg/mL. The inhibition result with Rattus norvegicus was “inactive”.

As for `COc1ccc(/C=C/C(=O)c2ccc[nH]2)c(OC)c1`, the outcome in test [1] was inactive. Further, the “fold change (FC)” value with Staphylococcus aureus [2] is on record as 2. In addition, the minimal effective concentration with Staphylococcus aureus [3] came out at 25 µg/mL. For the same compound, the inhibition result in the test on Rattus norvegicus was “inactive”.

Consider `O=C(/C=C/c1ccc([N+](=O)[O-])cc1)c1ccco1`, for which the outcome in test [1] was inactive. Also, the “fold change (FC)” value in the test with Staphylococcus aureus [2] is 0. Also, the minimal effective concentration in the test on Staphylococcus aureus [3] was greater than 50 µg/mL. The inhibition entry with Rattus norvegicus is “inactive”.

In the case of `O=C(/C=C/c1ccccc1Br)c1ccco1`, the result in test [1] was inactive. For the same compound, the “fold change (FC)” value with Staphylococcus aureus [2] is 0. In addition, the minimal effective concentration in the test on Staphylococcus aureus [3] is greater than 50 µg/mL. The inhibition result with Rattus norvegicus was “inactive”.

As for `O=C(/C=C/c1ccc(F)cc1)c1ccc[nH]1`, in test [1], the outcome was inactive. Also, the “fold change (FC)” value with Staphylococcus aureus [2] was found to be 2. The minimal effective concentration with Staphylococcus aureus [3] came to 25 µg/mL. In addition, the inhibition result in the test with Rattus norvegicus was “inactive”.

`COc1ccc(/C=C/C(=O)c2ccc[nH]2)cc1`: the outcome in test [1] was inactive. The “fold change (FC)” value in the test on Staphylococcus aureus [2] was determined as 2. Also, in the test with Staphylococcus aureus [3], the minimal effective concentration worked out at 25 µg/mL. Further, in the test on Rattus norvegicus, the inhibition entry was “inactive”.

Turning to `COc1ccc(/C=C/C(=O)c2ccco2)cc1OC`, the outcome in test [1] was inactive. For the same compound, the “fold change (FC)” value in the test with Staphylococcus aureus [2] came out at 0. Also, the minimal effective concentration in the test on Staphylococcus aureus [3] was greater than 50 µg/mL. In addition, the inhibition in vivo at 100 mg/kg with Rattus norvegicus was 23%.

For the compound `O=C(/C=C/c1cccc(Cl)c1Cl)c1ccc[nH]1`, the outcome in test [1] was inactive. For the same compound, the “fold change (FC)” value in the test on Staphylococcus aureus [2] worked out at 0. For the same compound, the minimal effective concentration with Staphylococcus aureus [3] was greater than 50 µg/mL. In the test with Rattus norvegicus, the inhibition entry was “inactive”.

Take `COc1ccc(OC)c(/C=C/C(=O)c2ccco2)c1`: the result in test [1] was inactive. The “fold change (FC)” value in the test with Staphylococcus aureus [2] amounted to 0. The minimal effective concentration in the test on Staphylococcus aureus [3] is greater than 50 µg/mL. Also, the inhibition entry in the test on Rattus norvegicus is “inactive”.

Regarding `O=C(/C=C/c1c(Cl)cccc1Cl)c1ccc[nH]1`, in test [1], the result was inactive. Besides, the “fold change (FC)” value in the test with Staphylococcus aureus [2] is 0. Also, in the test with Staphylococcus aureus [3], the minimal effective concentration is greater than 50 µg/mL. The inhibition entry in the test on Rattus norvegicus is “inactive”.

`COc1cccc(/C=C/C(=O)c2ccc[nH]2)c1OC`: in test [1], the result was inactive. Moreover, the “fold change (FC)” value in the test on Staphylococcus aureus [2] amounted to 4. The minimal effective concentration with Staphylococcus aureus [3] stood at 25 µg/mL. For the same compound, the inhibition entry with Rattus norvegicus was “inactive”.

Consider `COc1ccc(/C=C/C(=O)c2ccc[nH]2)cc1OC`, for which, in test [1], the result was inactive. In the test on Staphylococcus aureus [2], the “fold change (FC)” value was found to be 0. Also, the minimal effective concentration with Staphylococcus aureus [3] was greater than 50 µg/mL. Also, the inhibition result with Rattus norvegicus is “inactive”.

By IC50 is commonly meant the midpoint of a concentration-inhibition curve. The term inhibition in vivo denotes the change of the read-out against control, counted positive when it falls.
